From PMC6458995, “MAP4K4 Inhibition Promotes Survival of Human Stem Cell-Derived Cardiomyocytes and Reduces Infarct Size In Vivo” (Cell Stem Cell, 2019) come the findings set out here.

Assay in all cases: Dundee kinase panel
What all share (assay type): biochemical
Common to all, as to conditions: for remaining activity at 1 µM: read-out: residual activity

For one test, the target named is T1, CAMKKb (Homo sapiens, UniProt Q96RR4).
T1 construct: lines 1-140) and Reaction Biology
How it is done: (§1) Compounds were screened at 1 μM. For key hits, pIC50 values were then determined by HTRF as above. […] Stability in mouse and human liver microsomes was determined by Cyprotex.

The next test concerns the target T2, DDR2 (Homo sapiens, UniProt Q16832).
T2 construct: lines 1-140) and Reaction Biology
T2 sequence (Q16832 22-855): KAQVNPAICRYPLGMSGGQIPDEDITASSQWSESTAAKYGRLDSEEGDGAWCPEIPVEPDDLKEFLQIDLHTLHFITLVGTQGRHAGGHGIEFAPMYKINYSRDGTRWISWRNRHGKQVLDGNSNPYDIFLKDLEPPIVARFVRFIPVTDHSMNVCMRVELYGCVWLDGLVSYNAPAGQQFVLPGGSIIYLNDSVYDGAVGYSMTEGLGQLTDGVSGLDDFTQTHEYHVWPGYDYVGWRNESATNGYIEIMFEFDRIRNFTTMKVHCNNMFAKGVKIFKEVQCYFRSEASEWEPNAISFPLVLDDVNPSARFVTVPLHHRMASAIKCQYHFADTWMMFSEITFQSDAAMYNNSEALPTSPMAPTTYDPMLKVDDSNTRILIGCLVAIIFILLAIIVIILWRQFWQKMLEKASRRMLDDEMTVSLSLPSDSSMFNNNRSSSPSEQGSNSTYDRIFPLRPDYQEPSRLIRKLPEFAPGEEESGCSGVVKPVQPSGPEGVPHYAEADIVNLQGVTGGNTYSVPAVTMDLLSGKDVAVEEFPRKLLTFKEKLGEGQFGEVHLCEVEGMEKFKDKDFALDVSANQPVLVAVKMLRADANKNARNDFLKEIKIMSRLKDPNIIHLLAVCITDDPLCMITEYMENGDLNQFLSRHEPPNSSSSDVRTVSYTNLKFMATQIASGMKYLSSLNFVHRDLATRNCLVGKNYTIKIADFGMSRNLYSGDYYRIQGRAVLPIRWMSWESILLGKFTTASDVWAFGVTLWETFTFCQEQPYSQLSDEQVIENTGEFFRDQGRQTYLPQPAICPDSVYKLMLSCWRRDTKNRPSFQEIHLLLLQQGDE
How it is done:
as §1

Another test has as its target T3, EPH-A4 (Homo sapiens, UniProt P54764).
T3 construct: lines 1-140) and Reaction Biology
How it is done:
as §1

The target in the next test is T4, ERK2 (Homo sapiens, UniProt P28482).
T4 construct: lines 1-140) and Reaction Biology
How it is done:
as §1

Another test has as its target T5, HIPK3 (Homo sapiens, UniProt Q9H422).
T5 construct: lines 1-140) and Reaction Biology
How it is done:
as §1

A further test addresses T6, IKKe (Homo sapiens, UniProt Q14164).
T6 construct: lines 1-140) and Reaction Biology
T6 sequence (Q14164 1-716): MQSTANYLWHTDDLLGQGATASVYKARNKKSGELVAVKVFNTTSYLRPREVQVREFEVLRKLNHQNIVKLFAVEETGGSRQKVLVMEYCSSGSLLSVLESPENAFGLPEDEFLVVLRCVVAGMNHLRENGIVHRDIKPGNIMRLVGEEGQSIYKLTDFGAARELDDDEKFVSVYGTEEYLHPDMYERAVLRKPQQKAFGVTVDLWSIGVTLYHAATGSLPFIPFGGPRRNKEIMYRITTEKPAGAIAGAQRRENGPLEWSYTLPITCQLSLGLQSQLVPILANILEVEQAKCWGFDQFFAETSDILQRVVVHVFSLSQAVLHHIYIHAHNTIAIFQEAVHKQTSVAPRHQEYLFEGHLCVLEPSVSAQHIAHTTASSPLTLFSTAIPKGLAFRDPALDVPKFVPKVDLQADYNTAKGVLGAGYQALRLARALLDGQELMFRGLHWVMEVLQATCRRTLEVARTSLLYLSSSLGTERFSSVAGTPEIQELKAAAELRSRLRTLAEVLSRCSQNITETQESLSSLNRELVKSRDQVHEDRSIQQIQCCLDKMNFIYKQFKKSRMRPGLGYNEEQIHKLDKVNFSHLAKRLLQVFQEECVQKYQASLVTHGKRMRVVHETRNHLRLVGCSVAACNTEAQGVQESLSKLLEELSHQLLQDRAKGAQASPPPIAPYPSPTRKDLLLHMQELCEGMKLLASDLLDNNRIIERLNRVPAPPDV
How it is done:
as §1

In the next test the target is T7, JNK1 (Homo sapiens, UniProt P45983).
T7 construct: lines 1-140) and Reaction Biology
The method, then:
as §1

A further test concerns the target T8, MAPKAP-K2 (Homo sapiens, UniProt P49137).
T8 construct: lines 1-140) and Reaction Biology
How it is done:
as §1

Another test addresses T9, MEKK1 (Homo sapiens, UniProt Q13233).
T9 construct: lines 1-140) and Reaction Biology
How it is done:
as §1

The next test concerns the target T10, MNK1 (Homo sapiens, UniProt Q9BUB5).
T10 construct: lines 1-140) and Reaction Biology
How it is done:
as §1

The next test concerns the target T11, NEK6 (Homo sapiens, UniProt Q9HC98).
T11 construct: lines 1-140) and Reaction Biology
How it is done: as §1

A further test concerns the target T12, PIM1 (Homo sapiens, UniProt P11309).
T12 construct: lines 1-140) and Reaction Biology
The method, then:
as §1

In a further test the target is T13, PKCγ (Homo sapiens, UniProt P05129).
T13 construct: lines 1-140) and Reaction Biology
The method, then: as §1

Another test addresses T14, PLK1 (Homo sapiens, UniProt P53350).
T14 construct: lines 1-140) and Reaction Biology
The method, then: as §1

The next test addresses T15, RSK1 (Homo sapiens, UniProt Q15418).
T15 construct: lines 1-140) and Reaction Biology
How it is done: as §1

The next test deals with T16, SYK (Homo sapiens, UniProt P43405).
T16 construct: lines 1-140) and Reaction Biology
The method, then:
as §1

The target of another test is T17, TESK1 (Homo sapiens, UniProt Q15569).
T17 construct: lines 1-140) and Reaction Biology
The method, then:
as §1

The target of the next test is T18, p38d MAPK (Homo sapiens, UniProt O15264).
T18 construct: lines 1-140) and Reaction Biology
T18 sequence (O15264 1-365): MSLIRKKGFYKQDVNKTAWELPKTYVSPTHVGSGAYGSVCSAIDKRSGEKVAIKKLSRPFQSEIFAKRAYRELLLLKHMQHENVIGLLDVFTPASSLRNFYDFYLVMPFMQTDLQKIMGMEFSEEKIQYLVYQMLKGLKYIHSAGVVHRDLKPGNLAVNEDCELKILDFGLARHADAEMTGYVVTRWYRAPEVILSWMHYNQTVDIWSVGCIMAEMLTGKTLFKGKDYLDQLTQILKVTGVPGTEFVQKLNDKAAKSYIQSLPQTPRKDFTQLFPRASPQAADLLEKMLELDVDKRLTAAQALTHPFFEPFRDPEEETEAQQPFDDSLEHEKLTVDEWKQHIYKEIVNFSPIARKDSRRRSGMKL
How it is done: as §1

T5 sequence (Q9H422 whole entry): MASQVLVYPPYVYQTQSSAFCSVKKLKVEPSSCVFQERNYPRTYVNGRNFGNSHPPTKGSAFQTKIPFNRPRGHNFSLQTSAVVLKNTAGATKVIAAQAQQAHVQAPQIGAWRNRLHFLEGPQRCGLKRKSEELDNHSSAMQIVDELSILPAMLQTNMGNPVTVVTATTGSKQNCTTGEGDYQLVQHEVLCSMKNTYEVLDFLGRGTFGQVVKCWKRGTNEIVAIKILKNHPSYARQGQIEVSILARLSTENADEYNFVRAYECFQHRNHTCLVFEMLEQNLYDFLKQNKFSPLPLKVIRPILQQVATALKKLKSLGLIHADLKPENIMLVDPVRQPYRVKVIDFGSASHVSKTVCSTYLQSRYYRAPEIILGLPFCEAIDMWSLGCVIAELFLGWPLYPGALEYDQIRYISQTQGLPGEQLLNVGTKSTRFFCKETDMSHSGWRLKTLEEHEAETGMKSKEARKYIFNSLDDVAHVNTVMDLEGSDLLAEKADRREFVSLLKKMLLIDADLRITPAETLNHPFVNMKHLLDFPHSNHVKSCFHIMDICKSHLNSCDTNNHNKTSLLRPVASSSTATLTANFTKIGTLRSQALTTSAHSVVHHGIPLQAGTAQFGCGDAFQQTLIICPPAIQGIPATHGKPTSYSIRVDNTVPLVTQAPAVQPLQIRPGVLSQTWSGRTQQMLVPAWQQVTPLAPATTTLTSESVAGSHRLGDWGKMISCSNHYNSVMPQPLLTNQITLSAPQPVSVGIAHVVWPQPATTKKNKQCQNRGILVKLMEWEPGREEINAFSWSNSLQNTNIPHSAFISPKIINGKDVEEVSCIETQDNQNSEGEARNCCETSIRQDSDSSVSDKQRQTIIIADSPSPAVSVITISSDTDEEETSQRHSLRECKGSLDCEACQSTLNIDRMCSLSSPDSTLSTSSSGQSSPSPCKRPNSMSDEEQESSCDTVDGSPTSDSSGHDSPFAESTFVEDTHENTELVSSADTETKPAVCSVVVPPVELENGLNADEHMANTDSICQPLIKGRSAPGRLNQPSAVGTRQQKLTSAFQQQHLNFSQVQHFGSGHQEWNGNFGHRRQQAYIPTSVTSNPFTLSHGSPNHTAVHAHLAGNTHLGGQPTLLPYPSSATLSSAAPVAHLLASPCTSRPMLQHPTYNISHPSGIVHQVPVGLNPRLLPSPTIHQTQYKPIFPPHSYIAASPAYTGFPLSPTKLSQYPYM
T4 sequence (P28482 whole entry): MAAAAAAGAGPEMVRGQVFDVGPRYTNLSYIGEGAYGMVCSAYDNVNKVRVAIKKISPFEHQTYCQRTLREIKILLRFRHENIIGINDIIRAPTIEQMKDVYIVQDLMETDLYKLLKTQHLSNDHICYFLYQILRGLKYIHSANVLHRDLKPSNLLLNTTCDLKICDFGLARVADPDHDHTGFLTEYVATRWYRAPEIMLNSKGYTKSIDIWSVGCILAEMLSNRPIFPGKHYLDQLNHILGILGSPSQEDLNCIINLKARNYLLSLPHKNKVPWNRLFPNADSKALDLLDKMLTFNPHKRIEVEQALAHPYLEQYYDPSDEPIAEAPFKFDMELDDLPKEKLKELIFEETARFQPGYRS
T7 sequence (P45983 whole entry): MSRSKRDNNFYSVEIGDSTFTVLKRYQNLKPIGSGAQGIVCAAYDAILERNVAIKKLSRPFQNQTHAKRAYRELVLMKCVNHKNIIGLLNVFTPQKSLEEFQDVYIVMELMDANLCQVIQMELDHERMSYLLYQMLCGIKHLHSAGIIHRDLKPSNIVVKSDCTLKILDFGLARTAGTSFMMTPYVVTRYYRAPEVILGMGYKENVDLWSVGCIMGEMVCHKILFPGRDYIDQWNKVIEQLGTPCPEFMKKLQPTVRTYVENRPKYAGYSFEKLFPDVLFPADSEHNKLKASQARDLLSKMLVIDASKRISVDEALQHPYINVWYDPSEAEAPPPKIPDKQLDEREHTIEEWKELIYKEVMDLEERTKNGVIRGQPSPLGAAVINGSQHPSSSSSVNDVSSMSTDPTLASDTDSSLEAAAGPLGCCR
T10 sequence (Q9BUB5 whole entry): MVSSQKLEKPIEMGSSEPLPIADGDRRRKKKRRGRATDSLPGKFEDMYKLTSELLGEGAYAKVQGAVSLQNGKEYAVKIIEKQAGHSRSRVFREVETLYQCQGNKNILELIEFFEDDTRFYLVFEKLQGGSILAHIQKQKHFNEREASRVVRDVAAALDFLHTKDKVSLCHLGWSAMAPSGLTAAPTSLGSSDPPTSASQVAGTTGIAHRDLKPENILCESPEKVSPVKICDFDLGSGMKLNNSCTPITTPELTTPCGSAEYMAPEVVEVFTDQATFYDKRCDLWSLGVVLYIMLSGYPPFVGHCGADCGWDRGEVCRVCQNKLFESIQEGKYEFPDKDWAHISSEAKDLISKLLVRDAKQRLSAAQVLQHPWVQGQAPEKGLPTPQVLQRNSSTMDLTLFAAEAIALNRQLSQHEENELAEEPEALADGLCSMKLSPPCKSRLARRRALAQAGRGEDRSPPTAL
T14 sequence (P53350 whole entry): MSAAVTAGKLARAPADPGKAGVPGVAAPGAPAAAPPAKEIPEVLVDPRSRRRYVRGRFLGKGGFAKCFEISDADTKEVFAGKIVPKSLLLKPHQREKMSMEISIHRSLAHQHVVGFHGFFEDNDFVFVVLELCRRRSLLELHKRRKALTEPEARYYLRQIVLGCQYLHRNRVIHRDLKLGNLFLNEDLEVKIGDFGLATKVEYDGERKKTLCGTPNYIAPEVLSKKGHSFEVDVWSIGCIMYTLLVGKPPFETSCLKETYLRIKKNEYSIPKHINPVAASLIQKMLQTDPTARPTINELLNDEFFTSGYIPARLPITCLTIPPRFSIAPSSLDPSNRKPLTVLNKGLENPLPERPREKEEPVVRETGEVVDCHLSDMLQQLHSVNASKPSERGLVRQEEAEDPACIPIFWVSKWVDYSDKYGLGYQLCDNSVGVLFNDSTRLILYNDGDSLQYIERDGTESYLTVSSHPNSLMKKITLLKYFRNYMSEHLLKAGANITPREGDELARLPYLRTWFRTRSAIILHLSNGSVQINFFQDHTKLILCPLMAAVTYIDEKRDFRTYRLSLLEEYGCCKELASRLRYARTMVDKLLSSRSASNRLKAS
T17 sequence (Q15569 whole entry): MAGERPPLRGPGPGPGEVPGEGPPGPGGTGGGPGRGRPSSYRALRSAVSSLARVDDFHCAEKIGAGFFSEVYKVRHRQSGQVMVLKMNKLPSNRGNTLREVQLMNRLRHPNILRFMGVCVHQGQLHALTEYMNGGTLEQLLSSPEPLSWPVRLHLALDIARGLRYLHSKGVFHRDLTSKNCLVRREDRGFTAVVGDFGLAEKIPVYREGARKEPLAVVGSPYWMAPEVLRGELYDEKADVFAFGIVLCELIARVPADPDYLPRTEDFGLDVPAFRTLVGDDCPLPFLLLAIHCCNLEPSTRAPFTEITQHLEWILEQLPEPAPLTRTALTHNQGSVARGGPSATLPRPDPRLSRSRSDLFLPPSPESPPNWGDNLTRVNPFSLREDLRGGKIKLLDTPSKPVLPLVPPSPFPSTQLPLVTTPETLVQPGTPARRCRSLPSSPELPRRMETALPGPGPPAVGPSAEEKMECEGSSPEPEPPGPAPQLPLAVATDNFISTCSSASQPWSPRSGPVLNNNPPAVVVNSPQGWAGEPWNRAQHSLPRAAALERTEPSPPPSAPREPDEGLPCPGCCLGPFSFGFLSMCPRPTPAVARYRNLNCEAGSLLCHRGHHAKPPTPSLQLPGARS
T1 sequence (Q96RR4 whole entry): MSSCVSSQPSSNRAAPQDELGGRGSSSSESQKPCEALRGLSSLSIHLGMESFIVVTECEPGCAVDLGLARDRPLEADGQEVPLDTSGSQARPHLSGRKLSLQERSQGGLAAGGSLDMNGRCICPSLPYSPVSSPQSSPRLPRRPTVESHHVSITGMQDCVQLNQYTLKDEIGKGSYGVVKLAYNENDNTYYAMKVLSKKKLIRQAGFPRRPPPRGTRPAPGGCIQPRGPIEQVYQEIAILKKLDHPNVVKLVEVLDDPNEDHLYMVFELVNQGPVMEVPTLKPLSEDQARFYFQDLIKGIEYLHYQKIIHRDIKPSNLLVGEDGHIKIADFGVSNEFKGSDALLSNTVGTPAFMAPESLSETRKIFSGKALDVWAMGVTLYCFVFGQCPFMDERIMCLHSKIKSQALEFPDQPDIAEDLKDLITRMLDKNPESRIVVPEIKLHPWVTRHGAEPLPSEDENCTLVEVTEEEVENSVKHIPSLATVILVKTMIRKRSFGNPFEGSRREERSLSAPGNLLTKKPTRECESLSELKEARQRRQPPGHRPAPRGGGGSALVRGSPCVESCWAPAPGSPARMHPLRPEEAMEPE

Regarding `Oc1ncnc2c1c(-c1ccccc1)cn2-c1ccccc1` [F1386-0303, 5,7-diphenyl-7H-pyrrolo[2,3-d]pyrimidin-4-ol], the remaining activity at 1 µM at CAMKKb came to 98%; on DDR2, 88%; on EPH-A4 it was 92%; on ERK2, 99%; on HIPK3 it was 93%; on IKKe it was 139%. Besides, the remaining activity at 1 µM on JNK1 turned out to be 99%; at MAPKAP-K2, 101%; at MEKK1, 97%; on MNK1, 102%; on NEK6, 128%; at PIM1 it was 122%. The remaining activity at 1 µM at PKCγ was found to be 105%; at PLK1, 100%; on RSK1 it was 89%; on SYK it was 112%; at TESK1 it was 101%; on p38d MAPK, 114%.

Turning to `O=C1Cc2c([nH]c3ccc(Br)cc23)-c2ccccc2N1` [Kenpaullone], the remaining activity at 1 µM on CAMKKb was 72%; on DDR2, 88%; at EPH-A4 it was 96%; at ERK2, 124%; on HIPK3, 87%; on IKKe, 98%. For the same molecule, the remaining activity at 1 µM on JNK1 amounted to 100%; on MAPKAP-K2, 89%; on MEKK1, 5%; on MNK1 it was 91%; at NEK6, 99%; on PIM1 it was 90%. For the same molecule, the remaining activity at 1 µM on PKCγ amounted to 105%; on PLK1, 99%; on RSK1, 84%; at SYK it was 87%; at TESK1 it was 19%; on p38d MAPK it was 91%.

Consider `COCCOc1ccc(-c2cn(-c3ccccc3)c3nc[nH]c(=O)c23)cc1` [DMX-5804, 5-[4-(2-methoxy-ethoxy)-phenyl]-7-phenyl-3,7-dihydro-pyrrolo[2,3-d]pyrimidin-4-one], for which the remaining activity at 1 µM on CAMKKb stood at 77%; at DDR2 it was 80%; at EPH-A4 it was 105%; on ERK2 it was 76%; at HIPK3 it was 103%; on IKKe it was 106%. Further, the remaining activity at 1 µM amounted to 122% on JNK1; 105% on MAPKAP-K2; 111% at MEKK1; 90% on MNK1; 101% at NEK6; 98% at PIM1. Besides, the remaining activity at 1 µM on PKCγ turned out to be 94%; on PLK1, 118%; at RSK1, 86%; at SYK it was 96%; at TESK1, 90%; on p38d MAPK, 107%.

As for `O=C1Nc2ccc(I)cc2/C1=C/c1cc(Br)c(O)c(Br)c1` [GW5074], the remaining activity at 1 µM at CAMKKb worked out at 19%; at DDR2, 62%; on EPH-A4 it was 91%; on ERK2 it was 106%; on HIPK3, 25%; on IKKe, 82%. Also, the remaining activity at 1 µM at JNK1 was determined as 70%; at MAPKAP-K2 it was 81%; at MEKK1, 5%; at MNK1 it was 82%; at NEK6, 82%; on PIM1, 76%. The remaining activity at 1 µM is 100% at PKCγ; 81% on PLK1; 32% on RSK1; 72% on SYK; 32% at TESK1; 82% on p38d MAPK.

Turning to `Nc1ncc(C(=O)NC2CN(C(=O)C3CC3)C2)c2ccc(-c3cccc(F)c3)nc12` [GNE-495], the residual activity (in general, the signal under treatment as a percentage of the control signal) was determined as 105% at CAMKKb (1 μM); 109% on DDR2 (1 μM); 72% on EPH-A4 (1 μM); 104% on ERK2 (1 μM); 81% at HIPK3 (1 μM); 79% on IKKe (1 μM). In addition, the residual activity on JNK1 (1 μM) was 63%; at MAPKAP-K2 (1 μM), 101%; on MEKK1 (1 μM), 87%; on MNK1 (1 μM), 53%; on NEK6 (1 μM) it was 111%; at PIM1 (1 μM), 103%. Also, the residual activity was 74% on PKCγ (1 μM); 84% on PLK1 (1 μM); 65% on RSK1 (1 μM); 94% on SYK (1 μM); 72% at TESK1 (1 μM); 110% at p38d MAPK (1 μM).
